Experiments:
[1] = system: ATXN3Q81.Luc fusion protein; test: Confirmation dose-response, ATXN3 levels by immunoblotting; assay type: cell-based, human; settings: 293.ATXN3Q81Luc cells
From the text: Full-length ATXN3 (Accession number ABS29269) carrying either a normal or an expanded polyQ tract (Q26 or Q81) was subcloned in the vector pcDNA3.1 FLAG.firefly Luciferase. The mammalian expression plasmids pcDNA.FLAG.ATXN3Q26.Luc and pcDNA.FLAG.ATXN3Q81.Luc were confirmed by sequencing and shown to express N-terminal FLAG-tagged ATXN3Q26 or ATXN3Q81 fused with firefly Luciferase (Luc), respectively. These neomycin-resistant plasmids were transfected into HEK293 cells using Lipofectamine LTX (Invitrogen) during four hours, after which medium was replaced by growth medium (DMEM/10% fetal bovine serum (FBS)/1% penicillin/streptomycin (PS)). […] After one month of passage in selection medium, stably transfected clones for each cell line (293.ATXN3Q26Luc and 293.ATXN3Q81Luc) were pooled and frozen in liquid nitrogen. Stably transfected cell lines were maintained in selection medium except during treatment with specific compounds that were diluted in growth medium.
Protein lysates from cell cultures, mouse brain slices or mouse brains were obtained by lysis in RIPA buffer containing protease inhibitors (Complete, Roche Diagnostics), followed by sonication and centrifugation. The supernatants (soluble protein fractions) were collected, total protein concentration was determined using the BCA method (Pierce) and then stored at −80° C. Total proteins (50 μg from cell and slice cultures or 75 μg from brain regions of mice) were resolved in 10% SDS-PAGE gels, and corresponding PVDF membranes were incubated overnight at 4° C. with primary antibodies: mouse anti-ATXN3 (1H9) (1:2000; MAB5360, Millipore), goat anti-Luciferase (1:500; G7451, Promega), mouse anti-FLAG (M5) (1:500; IB13091, Sigma), rabbit anti-LC3 (1:500; PM036, MBL International Corporation), mouse anti-HSP90β (1:1000; ADI-SPA842, Enzo Life Sciences), rabbit anti-HSP90α (1:1000; ab2928, Abcam), mouse anti-HSP70 (1:500; SPA810, Enzo Life Sciences), rabbit anti-HSP40 (1:1000; #4868, Cell Signaling), rabbit anti-HSP25 (1:1000; ADI-SPA801, Enzo Life Sciences), rabbit anti-HSF1 (1:1000, ADI-SPA-901, Enzo Life Sciences), rabbit anti-ubiquitin (1:1000, Z 0458, Dako), rabbit anti-RAD23A (1:5000; TA307264, Origene), rabbit anti-RAD23B (1:2000; A302-306A, Bethyl Labs), rabbit anti-α-Tubulin (11H10) (1:10000; #2125, Cell Signaling), and mouse anti-GAPDH (1:1000; MAB374, Millipore). Pellets corresponding to insoluble protein fractions were resuspended in 100 μL of Laemmli buffer 2× and boiled for 10 min. Insoluble proteins were then quantified, and 100 μg were loaded in a filter trap assay apparatus and transferred to a nitrocellulose membrane (0.45 μm pore) that was incubated overnight with rabbit anti-MJD antibody (1:5000) at 4° C. Bound primary antibodies were visualized by incubation with a peroxidase-conjugated anti-mouse or anti-rabbit secondary antibody (1:10000; Jackson Immuno Research Laboratories) followed by treatment with the ECL-plus reagent (Western Lighting, PerkinElmer) and exposure to autoradiography films. Band intensity was quantified by densitometry using ImageJ.

human mutant ATXN3Q84 = assay type: cell-based; settings: sagittal brain slices treated for 48 hours, cerebellum and brainstem
Procedure: (§1) Nine slices per brain were used in each set of cultures. […] After 48 hours of incubation at 37° C./5% CO2, brain slices were assessed for ATXN3 levels by immunoblotting or immunofluorescence and for cell viability. For immunoblotting, each slice was macrodissected into separate cerebellum and brainstem that were immediately frozen at −80° C. in 80 μL and 150 μL of cold RIPA buffer containing protease inhibitors (Complete, Roche Diagnostics), respectively. Cell viability was assessed on treated slices by incubation in propidium iodide (PI) 1 μg/mL in culture medium for 1 hour. Slices were then mounted in PROLONG Gold Antifade Reagent (Invitrogen) and imaged using a FV500 Olympus confocal microscope.
Protein lysates from cell cultures, mouse brain slices or mouse brains were obtained by lysis in RIPA buffer containing protease inhibitors (Complete, Roche Diagnostics), followed by sonication and centrifugation. The supernatants (soluble protein fractions) were collected, total protein concentration was determined using the BCA method (Pierce) and then stored at −80° C. […] Pellets corresponding to insoluble protein fractions were resuspended in 100 μL of Laemmli buffer 2× and boiled for 10 min. Insoluble proteins were then quantified, and 100 μg were loaded in a filter trap assay apparatus and transferred to a nitrocellulose membrane (0.45 μm pore) that was incubated overnight with rabbit anti-MJD antibody (1:5000) at 4° C. Bound primary antibodies were visualized by incubation with a peroxidase-conjugated anti-mouse or anti-rabbit secondary antibody (1:10000; Jackson Immuno Research Laboratories) followed by treatment with the ECL-plus reagent (Western Lighting, PerkinElmer) and exposure to autoradiography films. Band intensity was quantified by densitometry using ImageJ.
To assess the efficacy of the five compounds to reduce ATXN3 levels in the mammalian brain, secondary screens in organotypic brain slice cultures derived from hemizygous YACMJD84.2 (Q84) transgenic mice were performed.

mouse Atxn3 = test: Organotypic brain slice cultures from YACMJD84.2 (Q84) mice, immunoblotting; assay type: cell-based; settings: sagittal brain slices treated for 48 hours, cerebellum and brainstem
Procedure: as §1
Protein lysates from cell cultures, mouse brain slices or mouse brains were obtained by lysis in RIPA buffer containing protease inhibitors (Complete, Roche Diagnostics), followed by sonication and centrifugation. The supernatants (soluble protein fractions) were collected, total protein concentration was determined using the BCA method (Pierce) and then stored at −80° C. […] Insoluble proteins were then quantified, and 100 μg were loaded in a filter trap assay apparatus and transferred to a nitrocellulose membrane (0.45 μm pore) that was incubated overnight with rabbit anti-MJD antibody (1:5000) at 4° C. […] Band intensity was quantified by densitometry using ImageJ. […]

SMILES	levels of ATXN3Q81.Luc fusion protein [1]	levels of human mutant ATXN3Q84 (human mutant ATXN3Q84)	levels of mouse Atxn3 (mouse Atxn3)
Cc1c(C(=O)NN2CCCCC2)nn(-c2ccc(Cl)cc2Cl)c1-c1ccc(I)cc1 [AM251]	confirmed to decrease levels of ATXN3Q81.Luc fusion protein		
CC#C[C@]1(O)CC[C@H]2[C@@H]3CCC4=CC(=O)CCC4=C3[C@@H](c3ccc(N(C)C)cc3)C[C@@]21C [mifepristone]	confirmed to decrease levels of ATXN3Q81.Luc fusion protein	did not alter ATXN3 levels	
Clc1ccccc1C(c1ccccc1)(c1ccccc1)n1ccnc1 [clotrimazole]	confirmed to decrease levels of ATXN3Q81.Luc fusion protein	did not alter ATXN3 levels	
CC[C@@H](C(=O)[C@@H](C)[C@@H](O)[C@H](C)[C@@H]1O[C@@H]([C@@H](CC)C(=O)O)CC[C@@H]1C)[C@H]1O[C@]2(C=C[C@@H](O)[C@]3(CC[C@@](C)([C@H]4CC[C@](O)(CC)[C@H](C)O4)O3)O2)[C@H](C)C[C@@H]1C [salinomycin sodium]	confirmed to decrease levels of ATXN3Q81.Luc fusion protein	reduced levels	reduced levels

Reference: patent US20190070174A1, “METHODS OF TREATING NEURODEGENERATIVE DISEASES” (priority 2016, published 2019)
